Measurements as given in US9346753B2, “Dithiol mucolytic agents” (PARION SCIENCES, INC., priority 2013, dated 2016).
Counter-ions that a name gives are not always drawn.

Experiment: DTNB assay: rate of disulfide bond reduction
Format: biochemical
Parameters: unit not given here
Details: 2nd order kinetic
Protocol: DTNB ASSAY: This assay determines the rate which a mucolytic agent can reduce a disulfide bond using 5,5-Dithiobis(2-nitrobenzoic acid). DTNB in various pH buffers and allows comparison of the kinetic rates of reducing agents. First, reducing agent stock solutions (30 mM) were made up in DMSO. Each compound stock solution was diluted, […] in 1 ml 50 mM Tris-HCl buffer, pH 7.5, and then added in a 1:1 volumetric ratio to a solution of 100 mM DTNB in 50 mM Tris-HCl buffer, pH 7.5. Max Abs412 was measured and then utilized to calculate the activity concentration. If the observed activity concentrations differed from expected activity concentrations by more than 5%, the volume was accordingly adjusted to kinetically test the rate in the next step. After having added the reducing agents, diluted in a range of pH buffer solutions (pH 6.0-7.5), to 45 mM DTNB in 50 mM Tris-HCl and measured the Abs412 for 5 min rates were calculated as a 2nd order kinetic.

Structure (SMILES): O[C@H](CS)[C@H](O)CS (racemic) [DTT, dithiothreitol, reference compound]
- Kinetic Reaction Rates of Reduction of DTNB (pH 6): 69
- Kinetic Reaction Rates of Reduction of DTNB (pH 6.5): 176
- Kinetic Reaction Rates of Reduction of DTNB (pH 7): 382
- Kinetic Reaction Rates of Reduction of DTNB (pH 7.5): 2088

Structure (SMILES): N=C(N)NCCCC[C@H](N)C(=O)NCCOc1ccc(CS)c(CS)c1 [C, (S)-2-amino-N-(2-(3,4-bis(mercaptomethyl)phenoxy)ethyl)-6-guanidinohexanamide]
- Kinetic Reaction Rates of Reduction of DTNB (pH 6): 2460
- Kinetic Reaction Rates of Reduction of DTNB (pH 6.5): 7122
- Kinetic Reaction Rates of Reduction of DTNB (pH 7): 12313
- Kinetic Reaction Rates of Reduction of DTNB (pH 7.5): 17317

Structure (SMILES): N=C(N)NCCCC[C@@H](N)C(=O)NCCOc1ccc(CS)c(CS)c1 [Compound B, (R)-2-amino-N-(2-(3,4-bis(mercaptomethyl)phenoxy)ethyl)-6-guanidinohexanamide Hydrochloride]
- Kinetic Reaction Rates of Reduction of DTNB (pH 6): 1491

Structure (SMILES): CC(=O)NCCCC[C@H](N)C(=O)NCCOc1ccc(CS)c(CS)c1 [Compound K, (S)-6-acetamido-2-amino-N-(2-(3,4-bis(mercaptomethyl)phenoxy)ethyl)hexanamide]
- Kinetic Reaction Rates of Reduction of DTNB (pH 6): 678
- Kinetic Reaction Rates of Reduction of DTNB (pH 6.5): 1820
- Kinetic Reaction Rates of Reduction of DTNB (pH 7): 3775
- Kinetic Reaction Rates of Reduction of DTNB (pH 7.5): 9143

Structure (SMILES): OC[C@@H](O)[C@@H](O)[C@H](O)[C@@H](O)CNCCOc1ccc(CS)c(CS)c1 [Compound O, (2R,3R,4R,5S)-6-(2-(3,4-bis(mercaptomethyl)phenoxy)ethylamino)hexane-1,2,3,4,5-pentaol hydrochloride]
- Kinetic Reaction Rates of Reduction of DTNB (pH 6): 921
- Kinetic Reaction Rates of Reduction of DTNB (pH 6.5): 2500
- Kinetic Reaction Rates of Reduction of DTNB (pH 7): 5412
- Kinetic Reaction Rates of Reduction of DTNB (pH 7.5): 13547

Structure (SMILES): NCCCC[C@@H](N)C(=O)NCCOc1ccc(CS)c(CS)c1 [Compound V, (R)-2,6-diamino-N-(2-(3,4-bis(mercaptomethyl)phenoxy)ethyl)hexanamide Hydrochloride]
- Kinetic Reaction Rates of Reduction of DTNB (pH 6): 1419
- Kinetic Reaction Rates of Reduction of DTNB (pH 6.5): 4568
- Kinetic Reaction Rates of Reduction of DTNB (pH 7): 6192
- Kinetic Reaction Rates of Reduction of DTNB (pH 7.5): 10043

Structure (SMILES): NCCCC[C@H](N)C(=O)NCCOc1cc(CS)c(CS)cc1OCCNC(=O)[C@@H](N)CCCCN [Compound W, (2S,2′S)-N,N′-(2,2′-(4,5-bis(mercaptomethyl)-1,2-phenylene)bis(oxy)bis(ethane-2,1-diyl))bis(2,6-diaminohexanamide) Hydrochloride]
- Kinetic Reaction Rates of Reduction of DTNB (pH 6): 4850

Structure (SMILES): N=C(N)NCCCC[C@H](N)C(=O)NCCCC[C@H](N)C(=O)NCCOc1ccc(CS)c(CS)c1 [E, (S)-2-amino-N-((S)-5-amino-6-(2-(3,4-bis(mercaptomethyl)phenoxy)ethylamino)-6-oxohexyl)-6-guanidinohexanamide Hydrochloride]
- Kinetic Reaction Rates of Reduction of DTNB (pH 6): 5933
- Kinetic Reaction Rates of Reduction of DTNB (pH 6.5): 13718
- Kinetic Reaction Rates of Reduction of DTNB (pH 7): 16393
- Kinetic Reaction Rates of Reduction of DTNB (pH 7.5): 17109

Structure (SMILES): N=C(N)NCCCC[C@H](N)C(=O)NCCOc1cc(CS)c(CS)cc1OCCNC(=O)[C@@H](N)CCCCNC(=N)N [H, (2S,2′S)-N,N′-(2,2′-(4,5-bis(mercaptomethyl)-1,2-phenylene)bis(oxy)bis(ethane-2,1-diyl))bis(2-amino-6-guanidinohexanamide) Hydrochloride]
- Kinetic Reaction Rates of Reduction of DTNB (pH 6): 6835

Structure (SMILES): CC(C)(C)OC(=O)NCCOc1ccc(CS)c(CS)c1 [I, tert-butyl 2-(3,4-bis(mercaptomethyl)phenoxy)ethylcarbamate]
- Kinetic Reaction Rates of Reduction of DTNB (pH 6): 285
- Kinetic Reaction Rates of Reduction of DTNB (pH 6.5): 745
- Kinetic Reaction Rates of Reduction of DTNB (pH 7): 1916
- Kinetic Reaction Rates of Reduction of DTNB (pH 7.5): 7265

Structure (SMILES): NCCOc1ccc(CS)c(CS)c1 [KK, (4-(2-aminoethoxy)-1,2-phenylene)dimethanethiol]
- Kinetic Reaction Rates of Reduction of DTNB (pH 6): 873
- Kinetic Reaction Rates of Reduction of DTNB (pH 6.5): 2411
- Kinetic Reaction Rates of Reduction of DTNB (pH 7): 5163
- Kinetic Reaction Rates of Reduction of DTNB (pH 7.5): 13896

Structure (SMILES): NCCCC[C@H](N)C(=O)NCCOc1ccc(CS)c(CS)c1 [L, (S)-2,6-diamino-N-(2-(3,4-bis(mercaptomethyl)phenoxy)ethyl)hexanamide]
- Kinetic Reaction Rates of Reduction of DTNB (pH 6): 1911
- Kinetic Reaction Rates of Reduction of DTNB (pH 6.5): 5565
- Kinetic Reaction Rates of Reduction of DTNB (pH 7): 8847
- Kinetic Reaction Rates of Reduction of DTNB (pH 7.5): 14566

Structure (SMILES): N=C(N)NCCOc1ccc(CS)c(CS)c1 [LL, 1-(2-(3,4-bis(mercaptomethyl)phenoxy)ethyl)guanidine]
- Kinetic Reaction Rates of Reduction of DTNB (pH 6): 743
- Kinetic Reaction Rates of Reduction of DTNB (pH 6.5): 2352
- Kinetic Reaction Rates of Reduction of DTNB (pH 7): 4661
- Kinetic Reaction Rates of Reduction of DTNB (pH 7.5): 8241

Structure (SMILES): OC[C@@H](O)[C@@H](O)[C@H](O)[C@@H](O)CN(CCOc1ccc(CS)c(CS)c1)C[C@H](O)[C@@H](O)[C@H](O)[C@H](O)CO [N, (2R,2′R,3R,3′R,4R,4′R,5S,5'S)-6,6′-(2-(3,4-bis(mercaptomethyl)phenoxy)ethylazanediyl)dihexane-1,2,3,4,5-pentaol hydrochloride]
- Kinetic Reaction Rates of Reduction of DTNB (pH 6): 952
- Kinetic Reaction Rates of Reduction of DTNB (pH 6.5): 2366
- Kinetic Reaction Rates of Reduction of DTNB (pH 7): 4382
- Kinetic Reaction Rates of Reduction of DTNB (pH 7.5): 9532

Structure (SMILES): CCCCCCN(CCOc1ccc(CS)c(CS)c1)C[C@H](O)[C@@H](O)[C@H](O)[C@H](O)CO [P, (2R,3R,4R,5S)-6-((2-(3,4-bis(mercaptomethyl)phenoxy)ethyl)(hexyl)amino)hexane-1,2,3,4,5-pentaol hydrochloride]
- Kinetic Reaction Rates of Reduction of DTNB (pH 6): 1018
- Kinetic Reaction Rates of Reduction of DTNB (pH 6.5): 2701
- Kinetic Reaction Rates of Reduction of DTNB (pH 7): 6180
- Kinetic Reaction Rates of Reduction of DTNB (pH 7.5): 13243

Structure (SMILES): CN(C)CCOc1ccc(CS)c(CS)c1 [Q, (4-(2-(dimethylamino)ethoxy)-1,2-phenylene)dimethanethiol hydrochloride]
- Kinetic Reaction Rates of Reduction of DTNB (pH 6): 954
- Kinetic Reaction Rates of Reduction of DTNB (pH 6.5): 2984
- Kinetic Reaction Rates of Reduction of DTNB (pH 7): 6077
- Kinetic Reaction Rates of Reduction of DTNB (pH 7.5): 15927

Structure (SMILES): N=C(NCCOc1ccc(CS)c(CS)c1)NC(=O)c1nc(Cl)c(N)nc1N [R, 3,5-diamino-N-(N-(2-(3,4-bis(mercaptomethyl)phenoxy)ethyl)carbamimidoyl)-6-chloropyrazine-2-carboxamide hydrochloride]
- Kinetic Reaction Rates of Reduction of DTNB (pH 6): 2901
- Kinetic Reaction Rates of Reduction of DTNB (pH 6.5): 7382
- Kinetic Reaction Rates of Reduction of DTNB (pH 7): 13522
- Kinetic Reaction Rates of Reduction of DTNB (pH 7.5): 16870

Structure (SMILES): NCCCC[C@H](N)C(=O)NCCCC[C@H](N)C(=O)NCCOc1ccc(CS)c(CS)c1 [S, (S)-2,6-diamino-N-((S)-5-amino-6-(2-(3,4-bis(mercaptomethyl)phenoxy)ethylamino)-6-oxohexyl)hexanamide]
- Kinetic Reaction Rates of Reduction of DTNB (pH 6): 4483
- Kinetic Reaction Rates of Reduction of DTNB (pH 6.5): 10715
- Kinetic Reaction Rates of Reduction of DTNB (pH 7): 13732
- Kinetic Reaction Rates of Reduction of DTNB (pH 7.5): 15469

Structure (SMILES): NCCCC[C@H](N)C(=O)NCCCC[C@H](N)C(=O)NCCCC[C@H](N)C(=O)NCCOc1ccc(CS)c(CS)c1 [T, (S)-2,6-diamino-N-((S)-5-amino-6-((S)-5-amino-6-(2-(3,4-bis(mercaptomethyl)phenoxy)ethylamino)-6-oxohexylamino)-6-oxohexyl)hexanamide]
- Kinetic Reaction Rates of Reduction of DTNB (pH 6): 5144

Structure (SMILES): N=C(N)NCCCC[C@H](N)C(=O)NCCCC[C@H](N)C(=O)NCCCC[C@H](N)C(=O)NCCOc1ccc(CS)c(CS)c1 [U, (S)-2-amino-6-((S)-2-amino-6-((S)-2-amino-6-guanidinohexanamido)hexanamido)-N-(2-(3,4-bis(mercaptomethyl)phenoxy)ethyl)hexanamide Hydrochloride]
- Kinetic Reaction Rates of Reduction of DTNB (pH 6): 5761

Structure (SMILES): NCCCC[C@H](N)C(=O)NCCCC[C@H](N)C(=O)NCCOc1cc(CS)c(CS)cc1OCCNC(=O)[C@@H](N)CCCCNC(=O)[C@@H](N)CCCCN [X, (S,2S,2′S)-N,N′-(2,2′-(4,5-bis(mercaptomethyl)-1,2-phenylene)bis(oxy)bis(ethane-2,1-diyl))bis(2-amino-6-((S)-2,6-diaminohexanamido)hexanamide)]
- Kinetic Reaction Rates of Reduction of DTNB (pH 6): 8029

Structure (SMILES): N=C(N)NCCCC[C@H](N)C(=O)NCCCC[C@H](N)C(=O)NCCOc1cc(CS)c(CS)cc1OCCNC(=O)[C@@H](N)CCCCNC(=O)[C@@H](N)CCCCNC(=N)N [Y, (S,2S,2′S)-N,N′-(2,2′-(4,5-bis(mercaptomethyl)-1,2-phenylene)bis(oxy)bis(ethane-2,1-diyl))bis(2-amino-6-((S)-2-amino-6-guanidinohexanamido)hexanamide)]
- Kinetic Reaction Rates of Reduction of DTNB (pH 6): 8718
